Measured values taken from ChEMBL document CHEMBL4196078, “Polypharmacology in HIV inhibition: can a drug with simultaneous action against two relevant targets be an alternative to combination therapy?” (Eur J Med Chem, 2018).
≈ marks a conversion by molar mass, not a printed value.

Columns and labels:
[1] = system: Human immunodeficiency virus 2; experiment: Antiviral activity against HIV2 D194 infected in human PBMC after 5 days by MTT assay; assay type: functional, organism-based, Human immunodeficiency virus type 2 (ISOLATE D194); details: Human immunodeficiency virus 2, 120 h
[2] = system: Human immunodeficiency virus 1; experiment: Antiviral activity against HIV1 Lai infected in human CEM-SS cells after 5 days by MTT assay; assay type: functional, organism-based; details: Human immunodeficiency virus 1, M:B_Lai, 120 h
[3] = system: Human immunodeficiency virus 1; experiment: Antiviral activity against HIV1 3B infected in human PBMC after 5 days by MTT assay; assay type: functional, organism-based; details: Human immunodeficiency virus 1, 3B, 120 h
[4] = system: Human immunodeficiency virus 1; experiment: Antiviral activity against HIV1 3B infected in human MT4 cells by MTT assay; assay type: functional, organism-based; details: Human immunodeficiency virus 1, 3B
[5] = Stability in culture medium containing 10% FBS at 100 uM after 72 hrs by HPLC analysis; assay type: ADME; details: cattle, read-out: Stability
[6] = system: Human immunodeficiency virus 1; experiment: Antiviral activity against HIV1 3B infected in human MT4 cells; assay type: functional, organism-based; details: Human immunodeficiency virus 1, 3B
[7] = system: Human immunodeficiency virus 1; experiment: Antiviral activity against HIV1; assay type: functional, organism-based
[8] = system: Human immunodeficiency virus 1; experiment: Antiviral activity against HIV1 infected in human CEM cells assessed as reduction in giant cell formation by microscopic method; assay type: functional, organism-based; details: Human immunodeficiency virus 1, CCRF-CEM
[9] = target: T1, Human immunodeficiency virus type 1 reverse transcriptase (Human immunodeficiency virus 1, UniProt Q72547); experiment: Inhibition of HIV1 3B reverse transcriptase using polyC/oligo(dG12) as template/primer in presence of [3H]dGTP and calf thymus DNA after 30 mins
[10] = target: Human immunodeficiency virus type 1 reverse transcriptase (Human immunodeficiency virus 1, UniProt Q72547, E138K); experiment: Inhibition of TSAO resistant HIV1 3B reverse transcriptase E138K mutant using polyC/oligo(dG12) as template/primer in presence of [3H]dGTP and calf thymus DNA after 30 mins
[11] = Half life of the compound in PBS by HPLC analysis; assay type: physicochemical
[12] = target: T1, Human immunodeficiency virus type 1 reverse transcriptase; experiment: Inhibition of HIV1 reverse transcriptase RNase H
Gag-Pol polyprotein = Gag-Pol polyprotein (Human immunodeficiency virus type 1 group M subtype B (isolate HXB2)(HIV-1), UniProt P04585); experiment: Inhibition of HIV1 reverse transcriptase polymerase; parameters: species or system Human immunodeficiency virus 1
[13] = system: Human immunodeficiency virus 2; experiment: Antiviral activity against HIV2; assay type: functional, organism-based
Human alphaherpesvirus 3 = experiment: Antiviral activity against VZV; assay type: functional, organism-based
Hepatitis B virus = experiment: Antiviral activity against HBV; assay type: functional, organism-based
[14] = system: Moloney murine sarcoma virus; experiment: Antiviral activity against MSV; assay type: functional, organism-based
[15] = target: T1, Human immunodeficiency virus type 1 reverse transcriptase; experiment: Inhibition of HIV1 reverse transcriptase polymerase p51/p66 after 10 to 20 mins in presence of [3H]-TTP by liquid scintillation counting method
[16] = target: T1, Human immunodeficiency virus type 1 reverse transcriptase; experiment: Inhibition of HIV1 reverse transcriptase RNase H using RNA-DNA hybrid duplex after 30 mins by FRET-based microplate fluorescence assay
Herpesviridae sp. [17] = experiment: Potency index, ratio of tenofovir EC50 to compound EC50 for antiviral activity against HSV; assay type: functional
Herpesviridae sp. [18] = experiment: Antiviral activity against HSV; assay type: functional, organism-based
[19] = system: Human immunodeficiency virus 1; experiment: Antiviral activity against HIV1 Lai infected in human MOLT4 cells after 7 days by WST8 assay; assay type: functional, organism-based; details: Human immunodeficiency virus 1, M:B_Lai, MOLT-4, 168 h
[20] = system: Human immunodeficiency virus 1; experiment: Antiviral activity against HIV1 3B infected in human CEM/0 after 4 days by microscopic method; assay type: functional, organism-based; details: Human immunodeficiency virus 1, 3B, CCRF-CEM, 96 h
[21] = system: Human immunodeficiency virus 1; experiment: Antiviral activity against PFA-resistant HIV1 harboring RT W88G mutant infected in human P4/R5 cells after 48 hrs by beta-galactosidase reporter gene assay; assay type: functional, organism-based; details: Human immunodeficiency virus 1, P4/R5, 48 h

CCc1c(Sc2cc(C)cc(C)c2)n(CCCCC(=O)NCCCCCCCCCCCCNc2ccn([C@H]3CC[C@@H](CO)O3)c(=O)n2)c(=O)[nH]c1=O
EC50 [1]: 450 nM
EC50 [2]: 450 nM
EC50 [3]: 450 nM
EC50 [4]: 450 nM

NC(=O)c1ncn([C@@H]2O[C@H](COP(=O)(O)OC[C@@H]3CC[C@H](n4cnc5c(=O)[nH]cnc54)O3)[C@@H](O)[C@H]2O)n1
remaining at 72 h, 100 µM [5]: 44%

CCc1c(Sc2cc(C)cc(C)c2)n(COCCO)c(=O)[nH]c1=O
EC50 [6]: 7 nM

Cc1cn([C@H]2C=C[C@@H](COC(=O)OC[C@@H]3C=C[C@H](n4cc(C)c(=O)[nH]c4=O)O3)O2)c(=O)[nH]c1=O
EC50 [7]: 240 nM

Cc1cn([C@@H]2O[C@H](CO[Si](C)(C)C(C)(C)C)[C@@]3(OS(=O)(=O)C=C3N)[C@H]2O[Si](C)(C)C(C)(C)C)c(=O)n(CCCO)c1=O
EC50 [8]: 100 nM

Cc1cn([C@H]2C=C[C@@H](COC(=O)NCCCCNC(=O)OC[C@H]3O[C@@H](n4cc(C)c(=O)[nH]c4=O)C[C@@H]3N=[N+]=[N-])O2)c(=O)[nH]c1=O
EC50 [7]: 96300 nM

COC(=O)P(=O)([O-])OCCCn1c(=O)c(C)cn([C@@H]2O[C@H](CO[Si](C)(C)C(C)(C)C)[C@@]3(OS(=O)(=O)C=C3N)[C@H]2O[Si](C)(C)C(C)(C)C)c1=O.[Na+]
EC50 [8]: 80 to 4500 nM
IC50 [9]: 3.7 to 11 µM
IC50 [10]: 293 to 430 µM
half-life [11]: 30 min

Cc1cn([C@H]2C[C@H](N=[N+]=[N-])[C@@H](COP(=O)(O)OC[C@@H]3CC[C@H](n4cnc5c(=O)[nH]cnc54)O3)O2)c(=O)[nH]c1=O
EC50 [6]: 2 nM
remaining at 72 h, 100 µM [5]: 57%

CC(C)(C)NC(=O)[C@H]1N(C(=O)[C@@H](O)[C@H](Cc2ccccc2)NC(=O)CC(C)(C)C(=O)O)CSC1(C)C
EC50 [7]: 52 nM

O=C1c2ccccc2C(=O)c2c1ccc(O)c2O [ATHRAQUINONES A]
IC50 [12]: > 100 µM
IC50 (Gag-Pol polyprotein): 79 µM

O=C(Oc1ccc2c(c1OC(=O)c1ccccc1)C(=O)c1ccccc1C2=O)c1ccccc1
IC50 [12]: 13 µM
IC50 (Gag-Pol polyprotein): 12 µM

Nc1nc(N)nc(OCCOCP(=O)(O)O)n1
EC50 [13]: 3.7 µM
EC50 (Human alphaherpesvirus 3): 3.1 µM
EC50 [7]: 2400 nM
EC50 (Hepatitis B virus): 3100 nM
EC50 [14]: 350 nM

Cc1cn([C@@H]2O[C@H](CO[Si](C)(C)C(C)(C)C)[C@@]3(OS(=O)(=O)C=C3N)[C@H]2O[Si](C)(C)C(C)(C)C)c(=O)n(CCCOP(=O)(O)C(=O)OCc2ccccc2)c1=O
EC50 [8]: 80 to 4500 nM
IC50 [9]: 3.7 to 11 µM
IC50 [10]: 293 to 430 µM
half-life [11]: 30 min

Cc1cn([C@H]2C[C@H](N=[N+]=[N-])[C@@H](COC(=O)NCCCCNC(=O)OC[C@H]3O[C@@H](n4cc(C)c(=O)[nH]c4=O)C[C@@H]3N=[N+]=[N-])O2)c(=O)[nH]c1=O
EC50 [7]: 26000 nM

Cc1cn([C@H]2C=C[C@@H](COC(=O)OCc3ccc(NC(=O)/C(O)=C/C(=O)c4cc(OCc5ccccc5)cc(OCc5ccccc5)c4)cc3)O2)c(=O)[nH]c1=O (stereo in doubt)
EC50 [7]: 430 nM

Cc1cn([C@H]2C[C@H](N=[N+]=[N-])[C@@H](COC(=O)OC[C@H]3O[C@@H](n4cc(C)c(=O)[nH]c4=O)C[C@@H]3N=[N+]=[N-])O2)c(=O)[nH]c1=O
EC50 [7]: 2 nM

COc1ccc2ccccc2c1/C=N/NC(=O)c1ccc(O)c(O)c1
IC50 [15]: > 25000 nM
IC50 [16]: 0.5 µM

Nc1cc(OCCOCP(=O)(O)O)nc(N)n1
EC50 [7]: 0.8 µg/mL
EC50 (Hepatitis B virus): 300 nM
Ratio EC50 (Herpesviridae sp. [17]): 20
EC50 (Herpesviridae sp. [18]): 6.3 µg/mL (≈ 23.8 µM)

COc1ccc2ccccc2c1/C=N/NC(=O)c1ccc(-c2ccccc2)cc1
IC50 [15]: 500 nM
IC50 [16]: 5 µM

Cc1cccc(C)c1OCC(=O)N[C@@H](Cc1ccccc1)[C@H](OC(=O)CCCC(=O)NCC(=O)OC[C@H]1O[C@@H](n2cc(C)c(=O)[nH]c2=O)C[C@@H]1N=[N+]=[N-])C(=O)N1CSC(C)(C)[C@H]1C(=O)NC(C)(C)C
EC50 [19]: 0.1 nM

O=c1[nH]cnc2c1ncn2[C@H]1CC[C@@H](CO)O1 [DIDANOSINE]
EC50 [6]: 13300 nM

Cc1cn([C@H]2C=C[C@@H](COC(=O)OC[C@H]3O[C@@H](n4cc(C)c(=O)[nH]c4=O)C[C@@H]3N=[N+]=[N-])O2)c(=O)[nH]c1=O
EC50 [7]: 6 nM

Cc1cccc(C)c1OCC(=O)N[C@@H](Cc1ccccc1)[C@H](O)C(=O)N1CSC(C)(C)[C@H]1C(=O)NC(C)(C)C
EC50 [19]: 92 nM

COc1ccc2ccccc2c1/C=N/NC(=O)c1ccc(Oc2ccccc2)cc1
IC50 [15]: 400 nM
IC50 [16]: 7 µM

C[C@H](Cn1cnc2c(N)ncnc21)OCP(=O)(O)O [TENOFOVIR ANHYDROUS]
EC50 (Herpesviridae sp. [18]): 105 µg/mL (≈ 366 µM)

Nc1ncnc2c1ncn2CCOCP(=O)(O)O [ADEFOVIR]
EC50 [7]: 2000 nM
IC50 (Hepatitis B virus): 700 nM

CCOC(=O)P(=O)(O)OCCCn1c(=O)c(C)cn([C@@H]2O[C@H](CO[Si](C)(C)C(C)(C)C)[C@@]3(OS(=O)(=O)C=C3N)[C@H]2O[Si](C)(C)C(C)(C)C)c1=O
EC50 [8]: 80 to 4500 nM
IC50 [9]: 3.7 to 11 µM
IC50 [10]: 293 to 430 µM
half-life [11]: 30 min

Cc1cn([C@H]2C[C@H](N=[N+]=[N-])[C@@H](COP(=O)(OC[C@@H]3CC[C@H](n4cnc5c(=O)[nH]cnc54)O3)OC[C@@H]3CC[C@H](n4cnc5c(=O)[nH]cnc54)O3)O2)c(=O)[nH]c1=O
EC50 [6]: 165 nM

COC(=O)P(=O)(OC)OCCCn1c(=O)c(C)cn([C@@H]2O[C@H](CO[Si](C)(C)C(C)(C)C)[C@@]3(OS(=O)(=O)C=C3N)[C@H]2O[Si](C)(C)C(C)(C)C)c1=O (stereo partly specified)
EC50 [8]: 80 to 4500 nM
half-life [11]: 30 min

Cc1cn([C@@H]2O[C@H](CO[Si](C)(C)C(C)(C)C)[C@@]3(OS(=O)(=O)C=C3N)[C@H]2O[Si](C)(C)C(C)(C)C)c(=O)n(CCCn2c(=O)c(C)cn([C@H]3C[C@H](N=[N+]=[N-])[C@@H](CO)O3)c2=O)c1=O
EC50 [20]: 90 nM

Cc1cn([C@H]2C[C@H](N=[N+]=[N-])[C@@H](COP(=O)(O)OC[C@H]3O[C@@H](n4cnc(C(N)=O)n4)[C@H](O)[C@@H]3O)O2)c(=O)[nH]c1=O
remaining at 72 h, 100 µM [5]: 36%

Cc1cn([C@H]2C[C@H](N=[N+]=[N-])[C@@H](CO)O2)c(=O)[nH]c1=O [ZIDOVUDINE]
EC50 [6]: 2 nM
EC50 [19]: 6.2 nM
EC50 [7]: 126 nM

Cc1cn([C@@H]2O[C@H](CO[Si](C)(C)C(C)(C)C)[C@@]3(OS(=O)(=O)C=C3N)[C@H]2O[Si](C)(C)C(C)(C)C)c(=O)n(CCCOP(=O)(O)C(=O)O)c1=O
EC50 [8]: 80 to 4500 nM
IC50 [9]: 3.7 to 11 µM
IC50 [10]: 293 to 430 µM
half-life [11]: 30 min
EC50 [21]: 160 nM
